14 compounds from US20250114345A1, “COMPOUNDS AND COMPOSITIONS AS CBP/P300 DEGRADERS AND USES THEREOF” (Oncopia Therapeutics, Inc. d/b/a/ SK Life Science Labs, priority 2023, published 2025) can be followed below.

For one assay, the target named is T1, p300 (Homo sapiens, UniProt Q09472).
T1 construct: host or cells: A549 P300 HiBit cells
Nature of the assay: P300 degradation, HiBit technology in A549 P300 HiBit cells (2 h). It is filed as cell-based. Particulars: 2 hrs post treatment; for Dmax: A549, A549 P300 HiBit cells; for DC50: A549 P300 HiBit cells. Put shortly:
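A549 cells carrying HiBit-tagged p300 or CBP, seeded overnight at 37 °C/5% CO2, then treated with serial compound dilutions from 10 mM DMSO stocks. Incubation was 2 h for p300 and 24 h for CBP, followed by HiBit lytic detection reagent for 10 min at room temperature. Luminescence read gave degradation potency and Dmax.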

A further assay addresses T2, CBP (Homo sapiens, UniProt Q92793).
T2 construct: host or cells: A549 CBP HiBit cells
Put plainly: CBP degradation, HiBit technology in A549 CBP HiBit cells (24 h). Type of assay: cell-based. The following applies: 24 hrs post treatment. The method, then: p300 and CBP degradation potency and Dmax were determined using in cell western (ICW) assay technology in H1299 cells or HiBit technology in A549 HiBit cells.
A549 P300 HiBit and A549 CBP HiBit cells were plated in separate 384-well, TC treated, white-opaque, flat-bottomed microplate. Cells were plated at a cell density of 0.2×10^4 cells per well in assay media comprised of F-12K, 10% heat inactivated FBS, and 1% penicillin/streptomycin. Assay microplates containing HiBit cells were placed in a 37° C., 5% CO2, tissue culture incubator and left to equilibrate overnight. The next day cells were treated with serial dilutions of test compound made up of 10 mM stock solutions in DMSO. 384-Well plates containing treated cells were then placed back into a 37° C., 5% CO2, tissue culture incubator. Assay microplates containing A549 P300 HiBit cells were incubated for 2 hrs post treatment before P300 destruction was assessed, while microplates containing A549 CBP HiBit cells were incubated for 24 hrs post treatment before CBP destruction was determined. On the day of each assay time point, microplates were removed from the tissue culture incubator and prepared HiBit Lytic detection buffer (Promega, cat #N3O40) was added to each plate. Plates were covered with aluminum foil and incubated for ten minutes at room temperature on an orbital shaker. After incubation, luminescent signal of each plate was measured using the Envision instrument (Perkin Elmer).
(The HiBiT peptide binds its large partner to form an active luciferase.)

T2 sequence (Q92793 whole entry): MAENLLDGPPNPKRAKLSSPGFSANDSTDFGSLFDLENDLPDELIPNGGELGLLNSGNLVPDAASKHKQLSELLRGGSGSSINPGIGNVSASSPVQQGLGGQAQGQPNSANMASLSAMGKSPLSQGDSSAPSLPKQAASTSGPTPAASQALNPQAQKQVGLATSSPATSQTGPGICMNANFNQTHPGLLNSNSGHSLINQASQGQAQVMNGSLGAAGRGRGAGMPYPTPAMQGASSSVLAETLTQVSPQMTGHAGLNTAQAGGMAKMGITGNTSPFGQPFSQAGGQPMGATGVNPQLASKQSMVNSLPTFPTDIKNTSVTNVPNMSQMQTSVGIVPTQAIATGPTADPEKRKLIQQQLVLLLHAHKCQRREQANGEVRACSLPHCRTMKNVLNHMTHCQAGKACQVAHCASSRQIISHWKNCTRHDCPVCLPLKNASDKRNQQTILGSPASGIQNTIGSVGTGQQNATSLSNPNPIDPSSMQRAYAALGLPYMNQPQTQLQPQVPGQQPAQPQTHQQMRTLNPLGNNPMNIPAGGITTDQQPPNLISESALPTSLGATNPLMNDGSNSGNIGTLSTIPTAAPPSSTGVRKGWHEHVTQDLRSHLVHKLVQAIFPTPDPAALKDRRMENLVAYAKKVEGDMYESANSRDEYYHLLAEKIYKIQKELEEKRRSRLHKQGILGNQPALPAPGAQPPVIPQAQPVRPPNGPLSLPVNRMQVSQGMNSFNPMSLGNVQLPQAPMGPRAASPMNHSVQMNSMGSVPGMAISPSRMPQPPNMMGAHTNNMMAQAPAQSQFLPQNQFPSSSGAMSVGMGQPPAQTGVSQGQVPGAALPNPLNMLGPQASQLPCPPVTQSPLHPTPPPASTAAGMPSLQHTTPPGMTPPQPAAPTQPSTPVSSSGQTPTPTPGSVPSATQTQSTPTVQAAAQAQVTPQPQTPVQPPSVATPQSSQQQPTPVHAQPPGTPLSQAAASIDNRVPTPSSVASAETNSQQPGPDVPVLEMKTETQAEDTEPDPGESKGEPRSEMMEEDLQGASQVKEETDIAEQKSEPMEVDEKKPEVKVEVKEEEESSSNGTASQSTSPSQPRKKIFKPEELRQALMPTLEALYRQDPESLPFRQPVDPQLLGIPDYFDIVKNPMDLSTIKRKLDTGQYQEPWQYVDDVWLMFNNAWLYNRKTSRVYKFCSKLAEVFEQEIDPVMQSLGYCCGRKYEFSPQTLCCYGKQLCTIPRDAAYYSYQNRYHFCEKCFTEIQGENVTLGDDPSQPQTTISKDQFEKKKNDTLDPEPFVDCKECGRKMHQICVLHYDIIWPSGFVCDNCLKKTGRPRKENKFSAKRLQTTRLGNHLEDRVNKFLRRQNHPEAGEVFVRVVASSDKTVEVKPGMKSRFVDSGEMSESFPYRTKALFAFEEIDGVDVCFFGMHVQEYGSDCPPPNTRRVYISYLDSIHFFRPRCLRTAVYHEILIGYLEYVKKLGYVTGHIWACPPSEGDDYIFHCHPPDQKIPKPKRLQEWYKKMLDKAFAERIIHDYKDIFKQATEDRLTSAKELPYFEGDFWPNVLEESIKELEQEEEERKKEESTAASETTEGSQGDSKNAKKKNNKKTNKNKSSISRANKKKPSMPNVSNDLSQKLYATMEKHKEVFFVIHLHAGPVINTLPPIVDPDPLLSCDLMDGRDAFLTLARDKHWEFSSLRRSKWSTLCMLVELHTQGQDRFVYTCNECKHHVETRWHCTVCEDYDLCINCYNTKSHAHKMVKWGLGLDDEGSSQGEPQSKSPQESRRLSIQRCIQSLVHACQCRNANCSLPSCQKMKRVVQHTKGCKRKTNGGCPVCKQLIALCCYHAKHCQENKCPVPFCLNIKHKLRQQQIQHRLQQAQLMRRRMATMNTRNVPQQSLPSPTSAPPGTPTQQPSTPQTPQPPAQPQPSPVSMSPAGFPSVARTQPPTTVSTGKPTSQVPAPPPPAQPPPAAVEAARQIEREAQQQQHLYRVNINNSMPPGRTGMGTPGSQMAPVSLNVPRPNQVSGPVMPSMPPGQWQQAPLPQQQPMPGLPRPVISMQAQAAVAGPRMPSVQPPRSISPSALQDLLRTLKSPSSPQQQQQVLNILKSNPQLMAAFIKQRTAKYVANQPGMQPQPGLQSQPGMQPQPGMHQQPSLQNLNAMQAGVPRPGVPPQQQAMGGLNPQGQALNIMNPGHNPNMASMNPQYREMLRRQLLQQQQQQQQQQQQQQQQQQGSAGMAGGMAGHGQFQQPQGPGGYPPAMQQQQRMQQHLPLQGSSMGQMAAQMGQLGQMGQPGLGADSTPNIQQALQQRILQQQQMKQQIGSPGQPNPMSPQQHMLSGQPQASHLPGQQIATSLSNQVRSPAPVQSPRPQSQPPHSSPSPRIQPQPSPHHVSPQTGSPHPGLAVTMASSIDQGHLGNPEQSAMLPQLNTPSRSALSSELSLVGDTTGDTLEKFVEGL
T1 sequence (Q09472 whole entry): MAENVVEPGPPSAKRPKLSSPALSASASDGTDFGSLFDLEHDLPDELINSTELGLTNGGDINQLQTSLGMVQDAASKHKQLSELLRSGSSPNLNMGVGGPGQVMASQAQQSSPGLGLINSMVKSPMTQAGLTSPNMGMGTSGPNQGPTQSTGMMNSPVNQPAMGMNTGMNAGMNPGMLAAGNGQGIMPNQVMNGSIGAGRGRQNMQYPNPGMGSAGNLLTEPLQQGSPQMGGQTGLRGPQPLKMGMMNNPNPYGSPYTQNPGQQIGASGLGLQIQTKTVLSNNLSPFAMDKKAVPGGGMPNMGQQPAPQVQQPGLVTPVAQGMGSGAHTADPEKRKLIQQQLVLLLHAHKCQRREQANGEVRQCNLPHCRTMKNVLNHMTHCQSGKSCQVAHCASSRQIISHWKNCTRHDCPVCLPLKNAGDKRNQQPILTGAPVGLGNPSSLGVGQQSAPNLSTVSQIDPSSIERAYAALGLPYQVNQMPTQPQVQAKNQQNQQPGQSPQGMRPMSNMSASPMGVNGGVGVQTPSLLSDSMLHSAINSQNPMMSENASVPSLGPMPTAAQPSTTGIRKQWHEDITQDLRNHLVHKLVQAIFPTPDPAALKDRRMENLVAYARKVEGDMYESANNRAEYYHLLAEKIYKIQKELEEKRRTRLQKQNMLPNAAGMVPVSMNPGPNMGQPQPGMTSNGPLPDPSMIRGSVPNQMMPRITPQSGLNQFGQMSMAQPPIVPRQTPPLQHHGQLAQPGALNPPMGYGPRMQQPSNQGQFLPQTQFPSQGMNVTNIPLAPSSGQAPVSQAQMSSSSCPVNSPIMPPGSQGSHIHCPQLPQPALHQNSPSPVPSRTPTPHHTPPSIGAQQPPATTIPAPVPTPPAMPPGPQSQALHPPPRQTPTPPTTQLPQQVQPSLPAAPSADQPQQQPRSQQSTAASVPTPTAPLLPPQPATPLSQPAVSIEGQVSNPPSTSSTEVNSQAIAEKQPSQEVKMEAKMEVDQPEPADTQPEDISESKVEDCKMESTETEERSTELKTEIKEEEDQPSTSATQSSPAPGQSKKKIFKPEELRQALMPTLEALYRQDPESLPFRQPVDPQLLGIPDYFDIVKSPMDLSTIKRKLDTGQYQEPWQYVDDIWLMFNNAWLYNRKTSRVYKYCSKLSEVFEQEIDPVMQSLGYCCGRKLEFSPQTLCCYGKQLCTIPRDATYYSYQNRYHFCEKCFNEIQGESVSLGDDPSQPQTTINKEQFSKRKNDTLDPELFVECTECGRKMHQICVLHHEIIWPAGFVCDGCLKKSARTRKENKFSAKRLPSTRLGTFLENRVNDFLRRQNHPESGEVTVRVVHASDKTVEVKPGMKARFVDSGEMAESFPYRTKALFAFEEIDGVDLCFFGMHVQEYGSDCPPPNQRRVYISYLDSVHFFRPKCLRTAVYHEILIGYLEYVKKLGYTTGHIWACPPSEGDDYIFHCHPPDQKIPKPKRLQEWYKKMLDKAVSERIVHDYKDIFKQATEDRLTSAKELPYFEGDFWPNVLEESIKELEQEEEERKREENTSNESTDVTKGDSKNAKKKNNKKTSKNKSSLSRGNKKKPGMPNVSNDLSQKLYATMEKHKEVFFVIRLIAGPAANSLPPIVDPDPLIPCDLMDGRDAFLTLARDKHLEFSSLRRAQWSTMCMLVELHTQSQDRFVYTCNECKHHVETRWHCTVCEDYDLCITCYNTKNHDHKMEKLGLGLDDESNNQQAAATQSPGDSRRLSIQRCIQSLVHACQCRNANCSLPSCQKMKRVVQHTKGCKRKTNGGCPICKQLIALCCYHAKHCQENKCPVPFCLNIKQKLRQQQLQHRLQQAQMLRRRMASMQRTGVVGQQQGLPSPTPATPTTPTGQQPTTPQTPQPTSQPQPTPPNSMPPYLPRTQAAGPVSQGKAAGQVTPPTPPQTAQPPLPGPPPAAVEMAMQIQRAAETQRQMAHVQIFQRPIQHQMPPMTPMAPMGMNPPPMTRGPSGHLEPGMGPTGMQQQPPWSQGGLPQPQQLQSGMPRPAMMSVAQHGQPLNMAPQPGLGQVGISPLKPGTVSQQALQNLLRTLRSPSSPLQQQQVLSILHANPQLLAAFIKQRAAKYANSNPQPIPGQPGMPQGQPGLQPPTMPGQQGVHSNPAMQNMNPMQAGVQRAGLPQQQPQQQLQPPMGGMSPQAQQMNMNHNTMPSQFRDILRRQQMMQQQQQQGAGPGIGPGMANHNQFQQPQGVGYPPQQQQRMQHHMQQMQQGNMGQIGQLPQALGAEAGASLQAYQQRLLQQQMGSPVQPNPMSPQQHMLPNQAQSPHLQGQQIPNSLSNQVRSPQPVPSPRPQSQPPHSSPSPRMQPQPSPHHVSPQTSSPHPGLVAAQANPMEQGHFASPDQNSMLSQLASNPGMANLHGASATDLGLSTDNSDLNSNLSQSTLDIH

Usually Dmax stands for the greatest extent of degradation seen. High values mean a fuller loss of target, low ones a partial loss of target. Usually DC50 stands for the midpoint of the concentration-degradation curve. Low readings indicate a more potent degrader, high ones a less potent degrader. In the case of `Cc1cc2c(N3CCCc4nc(-c5ccc(C(=O)NCC#Cc6cc7c(C8CCC(=O)NC8=O)c(F)ccc7o6)nc5)ncc43)cc(C3CCOCC3)cc2n(C)c1=O` (centres unmarked) [Example B90, 5-(5-(1,3-dimethyl-2-oxo-7-(tetrahydro-2H-pyran-4-yl)-1,2-dihydroquinolin-5-yl)-5,6,7,8-tetrahydropyrido[3,2-d]pyrimidin-2-yl)-N-(3-(4-(2,6-dioxopiperidin-3-yl)-5-fluorobenzo-furan-2-yl)prop-2-yn-1-yl)picolinamide], on p300, the Dmax is > 80% and the 50% degradation concentration (DC50) was < 1 nM. On CBP, the DC50 is > 1000 nM and the Dmax was < 20%.
For `Cc1cc2c(-c3cccc4cc(-c5ccc(C(=O)NCC#Cc6ccc7occ(C8CCC(=O)NC8=O)c7c6)nc5)ncc34)nc(C(C)C)cc2n(C)c1=O` (centres unmarked) [Example B102, N-(3-(3-(2,6-dioxopiperidin-3-yl)benzofuran-5-yl)prop-2-yn-1-yl)-5-(8-(7-isopropyl-1,3-dimethyl-2-oxo-1,2-dihydro-1,6-naphthyridin-5-yl)isoquinolin-3-yl)picolinamide], on p300, the Dmax was > 80% and the DC50 fell in the range of 1 to 9.9 nM. Also, at CBP, the DC50 is > 1000 nM and the Dmax was < 20%.
In the same order, the values of `CNC(=O)c1c[nH]c2ccc(-c3cccc4cc(-c5ccc(C(=O)NCC#Cc6ccc7occ(C8CCC(=O)NC8=O)c7c6)nc5)ncc34)cc12` (centres unmarked) [Example C1, 5-(3-(6-((3-(3-(2,6-dioxopiperidin-3-yl)benzofuran-5-yl)prop-2-yn-1-yl)carbamoyl)pyridin-3-yl)isoquinolin-8-yl)-N-methyl-1H-indole-3-carboxamide] are > 80%, 1 to 9.9 nM, > 1000 nM and < 20%.
In the same order, the values of `Cc1cc(N2CCOc3nc(-c4ccc(C(=O)NCC#Cc5ccc6occ(C7CCC(=O)NC7=O)c6c5)nc4)ncc32)cc2c1n(C)c(=O)n2C` (centres unmarked) [Example A68, N-(3-(3-(2,6-dioxopiperidin-3-yl)benzofuran-5-yl)prop-2-yn-1-yl)-5-(5-(1,3,7-trimethyl-2-oxo-2,3-dihydro-1H-benzo[d]imidazol-5-yl)-6,7-dihydro-5H-pyrimido [4,5-b][1,4]oxazin-2-yl)picolinamide] are > 80%, 1 to 9.9 nM, > 1000 nM and < 20%.
The corresponding values for `Cc1cc2c(N3CCCc4cc(-c5ccc(C(=O)NCC#Cc6cc7c(C8CCC(=O)NC8=O)cccc7o6)nc5)ncc43)cc(C3CCOCC3)nc2n(C)c1=O` (centres unmarked) [Example B169, 5-(1-(6,8-dimethyl-7-oxo-2-(tetrahydro-2H-pyran-4-yl)-7,8-dihydro-1,8-naphthyridin-4-yl)-1,2,3,4-tetrahydro-1,7-naphthyridin-6-yl)-N-(3-(4-(2,6-dioxopiperidin-3-yl)benzofuran-2-yl)prop-2-yn-1-yl)picolinamide] are > 80%, < 1 nM, 1 to 9.9 nM and 40 to 59%.
Consider `CC(C)c1cc(-c2cccc3cc(-c4ccc(C(=O)NCC#Cc5ccc6occ(C78CC(C7)C(=O)NC8=O)c6c5)nc4)ncc23)cc2c1n(C)c(=O)n2C` [Example A212, N-(3-(3-(2,4-dioxo-3-azabicyclo[3.1.1]heptan-1-yl)benzofuran-5-yl)prop-2-yn-1-yl)-5-(8-(7-isopropyl-1,3-dimethyl-2-oxo-2,3-dihydro-1H-benzo[d]imidazol-5-yl)isoquinolin-3-yl)picolinamide], for which, on p300, the Dmax is > 80% and the half-maximal degradation concentration (DC50) was in the range of 1 to 9.9 nM. Moreover, at CBP, the DC50 was > 1000 nM and the Dmax was < 20%.
Regarding `CC(C)c1cc(-c2cccc3cc(-c4ccc(C(=O)NCC#Cc5oc6c(C7CCC(=O)NC7=O)cccc6c5F)nc4)ncc23)cc2c1n(C)c(=O)n2C` (centres unmarked) [Example A191, N-(3-(7-(2,6-dioxo-piperidin-3-yl)-3-fluorobenzofuran-2-yl)prop-2-yn-1-yl)-5-(8-(7-isopropyl-1,3-dimethyl-2-oxo-2,3-dihydro-1H-benzo [d]imidazol-5-yl)isoquinolin-3-yl)picolinamide], on p300, the maximal degradation (Dmax) was > 80% and the DC50 was in the range of 10 to 99 nM. At CBP, the DC50 is > 1000 nM and the greatest degradation seen (Dmax) was < 20%.
For `COc1nc(-c2cnc(C(=O)NCC#Cc3cc4c(C5CCC(=O)NC5=O)cccc4o3)c(C)c2)ncc1Nc1cc(C2CCOCC2)cc2c1cc(C)c(=O)n2C` (centres unmarked) [Example B20, 5-(5-((1,3-dimethyl-2-oxo-7-(tetrahydro-2H-pyran-4-yl)-1,2-dihydroquinolin-5-yl)amino)-4-methoxypyrimidin-2-yl)-N-(3-(4-(2,6-dioxopiperidin-3-yl)benzofuran-2-yl)prop-2-yn-1-yl)-3-methylpicolinamide], at p300, the Dmax was > 80% and the DC50 lay within 1 to 9.9 nM. Besides, on CBP, the DC50 was > 1000 nM and the greatest degradation seen (Dmax) is < 20%.
The corresponding values for `Cc1cc2c(N3CCCc4nc(-c5ccc(C(=O)NCC#Cc6cc7c(C8CCC(=O)NC8=O)nccc7s6)nc5)ncc43)cc(C3CCOCC3)cc2n(C)c1=O` (centres unmarked) [Example B81, 5-(5-(1,3-dimethyl-2-oxo-7-(tetrahydro-2H-pyran-4-yl)-1,2-dihydroquinolin-5-yl)-5,6,7,8-tetrahydropyrido[3,2-d]pyrimidin-2-yl)-N-(3-(4-(2,6-dioxopiperidin-3-yl)thieno[3,2-c]pyridin-2-yl)prop-2-yn-1-yl)picolinamide] are > 80%, 1 to 9.9 nM, 10 to 99 nM and 40 to 59%.
In the case of `Cc1cc2c(N3CCCc4nc(-c5ccc(C(=O)NCC#Cc6ccc7occ(C8CCC(=O)NC8=O)c7c6)nc5)ncc43)nc(N3CCOCC3)nc2n(C)c1=O` (centres unmarked) [Example B51, 5-(5-(6,8-dimethyl-2-morpholino-7-oxo-7,8-dihydropyrido[2,3-d]pyrimidin-4-yl)-5,6,7,8-tetrahydropyrido[3,2-d]pyrimidin-2-yl)-N-(3-(3-(2,6-dioxopiperidin-3-yl)benzofuran-5-yl)prop-2-yn-1-yl)picolinamide], on p300, the Dmax is 40 to 59% and the DC50 was in the range of 1 to 9.9 nM. For the same compound, on CBP, the DC50 is > 1000 nM and the Dmax was < 20%.
In the same order, the values of `Cn1c(=O)n(C)c2cc(N3CCCc4nc(-c5ccc(C(=O)NCC#Cc6cc7c(C8CCC(=O)NC8=O)cccc7o6)nc5)ncc43)ccc21` (centres unmarked) [Example A226, 5-(5-(1,3-dimethyl-2-oxo-2,3-dihydro-1H-benzo[d]imidazol-5-yl)-5,6,7,8-tetrahydropyrido [3,2-d]pyrimidin-2-yl)-N-(3-(4-(2,6-dioxo-piperidin-3-yl)benzofuran-2-yl)prop-2-yn-1-yl)picolinamide] are > 80%, < 1 nM, 100 to 999 nM and < 20%.
For the compound `Cn1c(=O)n(C)c2c(N3CCC(C)(O)CC3)nc(-c3cccc4cc(-c5ccc(C(=O)NCC#Cc6cc7c(C8CCC(=O)NC8=O)cccc7o6)nc5)ncc34)cc21` (centres unmarked) [Example A258, N-(3-(4-(2,6-dioxo-piperidin-3-yl)benzofuran-2-yl)prop-2-yn-1-yl)-5-(8-(4-(4-hydroxy-4-methylpiperidin-1-yl)-1,3-dimethyl-2-oxo-2,3-dihydro-1H-imidazo[4,5-c]pyridin-6-yl)isoquinolin-3-yl)picolinamide], at p300, the maximal degradation (Dmax) is > 80% and the DC50 was < 1 nM. Also, on CBP, the DC50 was > 1000 nM and the Dmax was < 20%.
In the same order, the values of `COc1nc(-c2cnc(C(=O)NCC#Cc3cc4c(C5CCC(=O)NC5=O)cccc4o3)c(C)c2)ncc1Nc1cc(C2CCOCC2)c2c(c1)n(C)c(=O)n2C` (centres unmarked) [Example A207, 5-(5-((1,3-dimethyl-2-oxo-7-(tetrahydro-2H-pyran-4-yl)-2,3-dihydro-1H-benzo[d]imidazol-5-yl)amino)-4-methoxypyrimidin-2-yl)-N-(3-(4-(2,6-dioxopiperidin-3-yl)benzofuran-2-yl)prop-2-yn-1-yl)-3-methylpicolinamide] are > 80%, < 1 nM, 100 to 999 nM and < 20%.
For `Cc1cc2c(N3CCCc4nc(-c5ccc(C(=O)NCC#Cc6cc7c([C@H]8CCC(=O)NC8=O)cccc7o6)nc5)ncc43)cc(C3CCOCC3)nc2n(C)c1=O` [Example B48, (R)-5-(5-(6,8-dimethyl-7-oxo-2-(tetrahydro-2H-pyran-4-yl)-7,8-dihydro-1,8-naphthyridin-4-yl)-5,6,7,8-tetrahydropyrido[3,2-d]pyrimidin-2-yl)-N-(3-(4-(2,6-dioxopiperidin-3-yl)benzofuran-2-yl)prop-2-yn-1-yl)picolinamide], at p300, the Dmax is > 80% and the DC50 was < 1 nM. At CBP, the DC50 was in the range of 100 to 999 nM and the Dmax was < 20%.
